Measured values as given in US20250311727A1, “SUBSTITUTED 2-AMINOAZINES AND SALTS THEREOF, AND USE THEREOF AS HERBICIDAL ACTIVE SUBSTANCES” (BAYER AKTIENGESELLSCHAFT, priority 2022, published 2025).

Assays:
Assay type in all cases: in vivo
Kochia scoparia [1] = experiment: Post-emergence herbicidal efficacy at 80 g/ha, KCHSC; settings: rated visually after about 3 weeks vs untreated controls, 100% = plants have died
How it was run: (§1)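 Weeds grown in sandy loam under greenhouse conditions and sprayed post-emergence at the one-leaf stage (2–3 weeks after sowing) with WP or EC formulations plus 0.5% additive, 600 l/ha water. Activity scored visually about 3 weeks later versus untreated controls (0% = like control, 100% = plants dead).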

Abutilon theophrasti [2] = experiment: Pre-emergence herbicide efficacy at 320 g/ha, ABUTH; settings: scored visually after about 3 weeks vs untreated controls, 100% = plants have died
How it was run: (§2)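 Seeds were sown in sandy loam and covered with soil; WP or EC formulations were then sprayed onto the soil surface at 320 g/ha in 600 L/ha water with 0.5% additive. After about 3 weeks in the greenhouse, efficacy was scored visually as % versus untreated controls (100% = plants dead, 0% = like control).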

Amaranthus retroflexus [3] = experiment: Pre-emergence herbicide efficacy at 320 g/ha, AMARE; settings: scored visually after about 3 weeks vs untreated controls, 100% = plants have died
How it was run: as §2

Poa annua [4] = experiment: Pre-emergence herbicide efficacy at 320 g/ha, POAAN; settings: scored visually after about 3 weeks vs untreated controls, 100% = plants have died
How it was run: as §2

Kochia scoparia [5] = experiment: Post-emergence herbicidal efficacy at 320 g/ha, KCHSC; settings: rated visually after about 3 weeks vs untreated controls, 100% = plants have died
How it was run: (§3)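 Effects are visual ratings taken about three weeks after foliar application, scaled from 0% (as untreated control) to 100% (plants died). Application was at the one-leaf stage in greenhouse-grown pots.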

Poa annua [6] = experiment: Post-emergence herbicidal efficacy at 320 g/ha, POAAN; settings: rated visually after about 3 weeks vs untreated controls, 100% = plants have died
How it was run: as §3

Echinochloa crus-galli [7] = experiment: Post-emergence herbicidal efficacy at 320 g/ha, ECHCG; settings: rated visually after about 3 weeks vs untreated controls, 100% = plants have died
How it was run: as §3

Setaria viridis [8] = experiment: Pre-emergence herbicide efficacy at 320 g/ha, SETVI; settings: scored visually after about 3 weeks vs untreated controls, 100% = plants have died
How it was run: as §2

Abutilon theophrasti [9] = experiment: Post-emergence herbicidal efficacy at 320 g/ha, ABUTH; settings: rated visually after about 3 weeks vs untreated controls, 100% = plants have died
How it was run: as §3

Setaria viridis [10] = experiment: Post-emergence herbicidal efficacy at 320 g/ha, SETVI; settings: rated visually after about 3 weeks vs untreated controls, 100% = plants have died
How it was run: as §3

Kochia scoparia [11] = experiment: Pre-emergence herbicide efficacy at 80 g/ha, KCHSC; settings: scored visually after about 3 weeks vs untreated controls, 100% = plants have died
Text: (§4) Unwanted plants/weeds: • ABUTH: Abutilon theophrasti • ALOMY: Alopecurus myosuroides • AMARE: Amaranthus retroflexus • DIGSA: Digitaria sanguinalis • ECHCG: Echinochloa crus-galli • KCHSC: Kochia scoparia • LOLRI: Lolium rigidum • MATIN: Matricaria inodora • POAAN: Poa annua • POLCO: Polygonum convolvulus • SETVI: Setaria viridis • STEME: Stellaria media • VERPE: Veronica persica • VIOTR: Viola tricolor A. Post-Emergence Herbicidal Efficacy at 320 g/ha
(§5) Seeds of monocotyledonous and dicotyledonous weed plants and crop plants were placed in plastic or organic planting pots and covered with soil. The compounds of the invention, formulated in the form of wettable powders (WP) or as emulsion concentrates (EC), were then applied to the surface of the covering soil as aqueous suspension or emulsion with addition of 0.5% additive at a water application rate equivalent to 600 l/ha. After the treatment, the pots were placed in a greenhouse and kept under good growth conditions for the test plants. After about 3 weeks, the efficacy of the preparations was scored visually in comparison with untreated controls as percentages. For example, 100% activity=the plants have died, 0% activity=like control plants.
(§6) Tables D1 to D12 below show the effects of selected compounds of the general formula (I) according to Table 1 on various harmful plants and an application rate corresponding to 80 g/ha, which were obtained by the experimental procedure mentioned above.

Veronica persica [12] = experiment: Post-emergence herbicidal efficacy at 80 g/ha, VERPE; settings: rated visually after about 3 weeks vs untreated controls, 100% = plants have died
How it was run: as §1

Setaria viridis [13] = experiment: Pre-emergence herbicide efficacy at 80 g/ha, SETVI
How it was run: (§7)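 Pre-emergence test: pots sown with weed seeds, then compound (WP or EC) sprayed on the covering soil as aqueous suspension/emulsion with 0.5% additive at 600 l/ha water, here 80 g/ha. Greenhouse growth for about 3 weeks. Efficacy scored visually versus untreated controls, 0% (as control) to 100% (plants died).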

Polygonum convolvulus = experiment: Pre-emergence herbicide efficacy at 80 g/ha, POLCO; settings: scored visually after about 3 weeks vs untreated controls, 100% = plants have died
Text: as §4, §5, §6

Viola tricolor [14] = experiment: Post-emergence herbicidal efficacy at 80 g/ha, VIOTR; settings: rated visually after about 3 weeks vs untreated controls, 100% = plants have died
Text: as §4
Seeds of monocotyledonous and dicotyledonous weeds and crop plants were placed in sandy loam in plastic or organic planting pots, covered with soil and cultivated in a greenhouse under controlled growth conditions. 2 to 3 weeks after sowing, the test plants were treated at the one-leaf stage. The compounds of the invention, formulated in the form of wettable powders (WP) or as emulsion concentrates (EC), were then sprayed onto the green parts of the plants as aqueous suspension or emulsion with addition of 0.5% additive at a water application rate of 600 l/ha (converted). After the test plants had been kept in the greenhouse under optimum growth conditions for about 3 weeks, the activity of the preparations was rated visually in comparison to untreated controls. For example, 100% activity=the plants have died, 0% activity=like control plants.
Tables B1 to B11 below show the effects of selected compounds of the general formula (I) according to Table 1 on various harmful plants and an application rate corresponding to 80 g/ha, which were obtained by the experimental procedure mentioned above.

Amaranthus retroflexus [15] = experiment: Post-emergence herbicidal efficacy at 320 g/ha, AMARE; settings: rated visually after about 3 weeks vs untreated controls, 100% = plants have died
How it was run: as §3

Stellaria media [16] = experiment: Post-emergence herbicidal efficacy at 320 g/ha, STEME; settings: rated visually after about 3 weeks vs untreated controls, 100% = plants have died
How it was run: as §3

Amaranthus retroflexus [17] = experiment: Post-emergence herbicidal efficacy at 80 g/ha, AMARE; settings: rated visually after about 3 weeks vs untreated controls, 100% = plants have died
How it was run: as §1

Stellaria media [18] = experiment: Pre-emergence herbicide efficacy at 320 g/ha, STEME; settings: scored visually after about 3 weeks vs untreated controls, 100% = plants have died
How it was run: as §2

Digitaria sanguinalis [19] = experiment: Post-emergence herbicidal efficacy at 320 g/ha, DIGSA; settings: rated visually after about 3 weeks vs untreated controls, 100% = plants have died
How it was run: as §3

Amaranthus retroflexus [20] = experiment: Pre-emergence herbicide efficacy at 80 g/ha, AMARE; settings: scored visually after about 3 weeks vs untreated controls, 100% = plants have died
How it was run: as §7

Matricaria inodora [21] = experiment: Pre-emergence herbicide efficacy at 320 g/ha, MATIN; settings: scored visually after about 3 weeks vs untreated controls, 100% = plants have died
Text: as §4
(§8) Seeds of mono- and dicotyledonous weed plants were placed in plastic pots in sandy loam soil (doubly sown with one species each of mono- or dicotyledonous weed plants per pot) and covered with soil. The compounds of the invention, formulated in the form of wettable powders (WP) or as emulsion concentrates (EC), were then applied to the surface of the covering soil as aqueous suspension or emulsion with addition of 0.5% additive at a water application rate of 600 litres per hectare (converted). After the treatment, the pots were placed in a greenhouse and kept under good growth conditions for the test plants. After about 3 weeks, the efficacy of the preparations was scored visually in comparison with untreated controls as percentages.
(§9) For example, 100% activity=the plants have died, 0% activity=like control plants.
(§10) Tables C1 to C12 below show the effects of selected compounds of the general formula (I) according to Table 1 on various harmful plants and at an application rate corresponding to 320 g/ha, which were obtained by the trial procedure specified above.

Matricaria inodora [22] = experiment: Pre-emergence herbicide efficacy at 80 g/ha, MATIN; settings: scored visually after about 3 weeks vs untreated controls, 100% = plants have died
Text: as §4, §5, §6

Veronica persica [23] = experiment: Pre-emergence herbicide efficacy at 80 g/ha, VERPE
Text: as §4, §5, §6

Viola tricolor [24] = experiment: Pre-emergence herbicide efficacy at 80 g/ha, VIOTR
How it was run: as §7

Veronica persica [25] = experiment: Pre-emergence herbicide efficacy at 320 g/ha, VERPE; settings: scored visually after about 3 weeks vs untreated controls, 100% = plants have died
How it was run: as §2

Digitaria sanguinalis [26] = experiment: Pre-emergence herbicide efficacy at 80 g/ha, DIGSA; settings: scored visually after about 3 weeks vs untreated controls, 100% = plants have died
How it was run: as §7

Veronica persica [27] = experiment: Post-emergence herbicidal efficacy at 320 g/ha, VERPE; settings: rated visually after about 3 weeks vs untreated controls, 100% = plants have died
How it was run: as §3

Digitaria sanguinalis [28] = experiment: Pre-emergence herbicide efficacy at 320 g/ha, DIGSA; settings: scored visually after about 3 weeks vs untreated controls, 100% = plants have died
How it was run: as §2

Echinochloa crus-galli [29] = experiment: Pre-emergence herbicide efficacy at 80 g/ha, ECHCG; settings: scored visually after about 3 weeks vs untreated controls, 100% = plants have died
Text: as §4, §5, §6

Echinochloa crus-galli [30] = experiment: Pre-emergence herbicide efficacy at 320 g/ha, ECHCG; settings: scored visually after about 3 weeks vs untreated controls, 100% = plants have died
How it was run: as §2

Lolium rigidum = experiment: Pre-emergence herbicide efficacy at 320 g/ha, LOLRI; settings: scored visually after about 3 weeks vs untreated controls, 100% = plants have died
Text: as §4, §8, §9, §10

Kochia scoparia [31] = experiment: Pre-emergence herbicide efficacy at 320 g/ha, KCHSC; settings: scored visually after about 3 weeks vs untreated controls, 100% = plants have died
How it was run: as §2

## N#Cc1cccc(Nc2ncc(F)cn2)c1-n1cc(C(F)(F)F)cn1 [Example 1-60]
Kochia scoparia [1]
  Post-emergence efficacy at 80 g/ha against KCHSC in %: 100%
Abutilon theophrasti [2]
  Pre-emergence efficacy at 320 g/ha against ABUTH in %: 90%
Amaranthus retroflexus [3]
  Pre-emergence efficacy at 320 g/ha against AMARE in %: 100%
Poa annua [4]
  Pre-emergence efficacy at 320 g/ha against POAAN in %: 100%
Kochia scoparia [5]
  Post-emergence efficacy at 320 g/ha against KCHSC in %: 100%
Poa annua [6]
  Post-emergence efficacy at 320 g/ha against POAAN in %: 100%
Echinochloa crus-galli [7]
  Post-emergence efficacy at 320 g/ha against ECHCG in %: 100%
Setaria viridis [8]
  Pre-emergence efficacy at 320 g/ha against SETVI in %: 90%
Abutilon theophrasti [9]
  Post-emergence efficacy at 320 g/ha against ABUTH in %: 90%
Setaria viridis [10]
  Post-emergence efficacy at 320 g/ha against SETVI in %: 90%
Kochia scoparia [11]
  Pre-emergence efficacy at 80 g/ha against KCHSC in %: 100%
Veronica persica [12]
  Post-emergence efficacy at 80 g/ha against VERPE in %: 100%
Setaria viridis [13]
  Pre-emergence efficacy against SETVI: 100%
Polygonum convolvulus
  Pre-emergence efficacy at 80 g/ha against POLCO in %: 100%
Viola tricolor [14]
  Post-emergence efficacy at 80 g/ha against VIOTR in %: 90%
Amaranthus retroflexus [15]
  Post-emergence efficacy at 320 g/ha against AMARE in %: 100%
Stellaria media [16]
  Post-emergence efficacy at 320 g/ha against STEME in %: 100%
Amaranthus retroflexus [17]
  Post-emergence efficacy at 80 g/ha against AMARE in %: 90%
Stellaria media [18]
  Pre-emergence efficacy at 320 g/ha against STEME in %: 100%
Digitaria sanguinalis [19]
  Post-emergence efficacy at 320 g/ha against DIGSA in %: 90%
Amaranthus retroflexus [20]
  Pre-emergence efficacy at 80 g/ha against AMARE in %: 100%
Matricaria inodora [21]
  Pre-emergence efficacy at 320 g/ha against MATIN in %: 100%
Matricaria inodora [22]
  Pre-emergence efficacy at 80 g/ha against MATIN in %: 100%
Veronica persica [23]
  Pre-emergence efficacy against VERPE: 80%
Viola tricolor [24]
  Pre-emergence efficacy against VIOTR: 100%
Veronica persica [25]
  Pre-emergence efficacy at 320 g/ha against VERPE in %: 100%
Digitaria sanguinalis [26]
  Pre-emergence efficacy at 80 g/ha against DIGSA in %: 100%
Veronica persica [27]
  Post-emergence efficacy at 320 g/ha against VERPE in %: 100%
Digitaria sanguinalis [28]
  Pre-emergence efficacy at 320 g/ha against DIGSA in %: 100%
Echinochloa crus-galli [29]
  Pre-emergence efficacy at 80 g/ha against ECHCG in %: 80%
Echinochloa crus-galli [30]
  Pre-emergence efficacy at 320 g/ha against ECHCG in %: 90%
Lolium rigidum
  Pre-emergence efficacy at 320 g/ha against LOLRI in %: 90%
Kochia scoparia [31]
  Pre-emergence efficacy at 320 g/ha against KCHSC in %: 100%

## Fc1cnc(Nc2cccc(F)c2-n2cc(C(F)(F)F)cn2)nc1 [Example 1-48]
Amaranthus retroflexus [3]
  Pre-emergence efficacy at 320 g/ha against AMARE in %: 100%
Poa annua [4]
  Pre-emergence efficacy at 320 g/ha against POAAN in %: 100%
Kochia scoparia [5]
  Post-emergence efficacy at 320 g/ha against KCHSC in %: 90%
Echinochloa crus-galli [7]
  Post-emergence efficacy at 320 g/ha against ECHCG in %: 90%
Setaria viridis [8]
  Pre-emergence efficacy at 320 g/ha against SETVI in %: 100%
Amaranthus retroflexus [15]
  Post-emergence efficacy at 320 g/ha against AMARE in %: 100%
Stellaria media [18]
  Pre-emergence efficacy at 320 g/ha against STEME in %: 100%
Veronica persica [25]
  Pre-emergence efficacy at 320 g/ha against VERPE in %: 100%
Digitaria sanguinalis [28]
  Pre-emergence efficacy at 320 g/ha against DIGSA in %: 100%
Lolium rigidum
  Pre-emergence efficacy at 320 g/ha against LOLRI in %: 100%
Kochia scoparia [31]
  Pre-emergence efficacy at 320 g/ha against KCHSC in %: 100%
